Measured values: patent US20060094790A1, “Use of sphingosine kinase activator as skin disease treating agent and method for treating skin diseases using the same” (priority 2004, published 2006)

Legend:
hairless mouse = assay type: in vivo; details: mouse, in vivo
Source text: To evaluate effect of the sphingosine kinase activator upon inhibition of steroid side effects, a steroid was applied to a hairless mouse. Typically, side effects caused by long-term or excessive dose of steroids include skin atrophy expressed by thinning of skin and weakening of skin functions, and a rebound phenomenon including reoccurrence of conditions caused by stopping use of steroids. It is reported that the main cause for such side effects is inhibition of fibroblast activity and a decrease in collagen production (S. Hammer et al., J. Cell. Biochem, 91, 840-851, 2004), Therefore, it is expected that the compound according to the present invention enhances collagen synthesis and differentiation of keratinocytes, and thus inhibits such side effects caused by steroids. To perform a test, a steroid, i.e. 0.05% chlobetason-17-propionate, and […]-5 according to the present invention (1.0% in PEG:EtOH=7:3) were applied to a hairless mouse and changes in the skin were observed. The treating agents were applied to the back of a hairless mouse 9 times per day and the tissue was collected. Then, the epidermis and dermis were observed by carrying out the H & E staining method (hematoxylin and eosin staining) known to one skilled in the art.

RBL-2H3 cell line = experiment: Intracellular calcium movement (fura-2 fluorescence); assay type: cell-based; details: RBL-2H3 cells, fura-2, FIGS. 1a to 1d
Experimental: First, the following experiment for calcium movement was performed in order to determine whether the above sphingosine kinase activator compounds activate sphingosine-1-phosphate, so as to cause intracellular calcium movement, which is a typical activity specific to sphingosine-1-phosphate.
The sphingosine kinase activator compounds were determined for capability of inducing intracellular calcium movement by using a RBL-2H3 cell line, which is one of the typical cell lines showing intracellular calcium movement. The cells are cultured by using an RPMI 1640 culture medium and the cells were washed simultaneously with removal of the medium. Then, 10 μM of fura-2/Am and 250 μl M of sulfinpyrazone were added thereto, followed by incubation for 30 minutes. Cell pellets were obtained by centrifugal separation and the cell pellets were dispersed in Ca^2+-free Locke's solution. The dispersion was divided into a unit of 1×10^6 cells for use in treating samples. Next, the cells were introduced into a cuvet of a fluorescence microscope, each sphingosine kinase activator compound was added thereto, and intracellular calcium movement was observed by the fluorescence microscope (RF-5310PC, Spectrofluoro photometer, SHIMADZU). When intracellular calcium ions are detected, they cause fluorescence by bonding with fura-2. Therefore, a degree of calcium movement caused by a sample was evaluated by calculating a difference between the measurement of fura-2 ([…]) bonded with calcium and that of non-bonded fura-2 ([…]).

keratinocytes = experiment: Differentiation of keratinocytes (western blotting of involucrin and keratin-1); assay type: cell-based; details: 10 μM, 48 hours, FIG. 2
Experimental: In order to evaluate the effect of the above compound according to the present invention upon differentiation of keratinocytes, each of K6PC4, K6PC-5, K6PC-7 and K6PC-9 was dissolved in DMSO at a concentration of 10 μM and used as sample. Evaluation was performed by using the western blotting method. As differentiation markers, involucrin and keratine-1, which were differentiation markers of keratinocytes, were measured. Next, 48 hours after the treatment of samples, the culture solution was discarded and the cells were washed with PBS and collected by filtering. The collected cells were washed again and subjected to centrifugal separation to remove supernatant. The cells were dissolved in a solvent and subjected to centrifugal separation at 12,000 rpm for 10 minutes, thereby removing cell membranes, etc. Protein concentration was determined by the Bradford method. Proteins were separated by mini gel type SDS-PAGE (polyacrylamide gel electrohoresis) and transferred to a PVDF (polyvinylidene fluoride) membrane at 100V for 1 hour, so that gel-like proteins were subjected to blotting with a transfer membrane. Then, the membrane was colored with Ponceau S solution to determine whether transfer was accomplished or not. The membrane was blocked by using TTBS (TBS+0.1% Tween 20) solution containing 5% non-fat dried milk. In order to check the amount of involucrin as differentiation marker of keratinocytes, primary antibody involucrin (Neomarkers Co.) was diluted at a ratio of about 1/200 to 1.400, and keratin-1 (Covance Co.) was diluted at a ratio of about 1/1000. Reactions were performed overnight at 4° C. As secondary antibody, anti-mouse IgG and anti-rabbit IgG combined with horseradish peroxidase (HRP) was diluted at a ratio of 1:2000. Then, the secondary antibody was bonded to the primary antibody by making them react at room temperature for 1 hour. The membrane was washed with TTBS three times, reacted with an ECL substrate (Amersham Co.) for 1-3 minutes, and exposed to X-ray films.

sphingosine kinase = biological target: T1, sphingosine kinase (Mus musculus, UniProt Q8CI15); experiment: Activation of sphingosine kinase (C17-sphingosine-1-phosphate production, HPLC); assay type: cell-based; details: F9-12 cells, 24 hours, 50 μM compound, PMA 300 nM; for C17-SIP Production: non-treated control 51.72; for increase in production of sphingosine-1-phosphate: versus non-treated control
T1 construct: host or cells: F9-12 cells
Experimental: The following test for activation of sphingosine kinase was performed to determine whether the effects of the above compounds upon intracellular calcium signal transfer as described in Example 1 were caused by activation of sphingosine kinase.
F9-12 cells were treated with 300 nM of PMA ([…]) as positive control, and 50 μM of each of K6PC4 and K6PC-5 for 24 hours and collected. Then, activity of sphingosine kinase was measured as production of C17-sphingosine-1-phosphate based on 50 μg of protein. Sphingosine-1-phospate was extracted from the collected cells by the steps of: (1) treating with trypsin-EDTA, (2) centrifugal separation at 1,500 rpm for 10 minutes, and (3) washing with PBS, followed by freeze-drying. Then, PBS was added to the freeze-dried product and the resultant product was treated with ultrasonic waves to destroy cells. Sphingosine-1-phosphate was determined by HPLC, and OPA (o-phthalaldehyde) reagent and boric acid buffer were added to the extracted sample and the mixture was reacted at room temperature for 20 minutes. For the HPLC quantitive analysis, fluorescence intensity was measured at each wavelength of 340 nm and 455 nm with a solution in 90% acetonitrile, and a ratio to the internal standard was calculated.

fibroblasts = experiment: Collagen synthesis in fibroblasts (PICP, collagen measuring kit); assay type: cell-based; details: 72 hours; for Amount of PICP produced in fibroblasts (average ± SEM): non-treated control 47.1 ± 9.7; for collagen synthesis increase as compared to the non-treated control: fibroblasts, 0.3 or 1.0 μg/ml (concentration not given)
Experimental: The following experiment was performed by using fibroblasts in order to evaluate the effect of sphingosine kinase activator upon collagen synthesis.
Each of K6PC4, K6PC-5, K6PC-7 and K6PC-9 was dissolved in DMSO at a concentration of 0.3 and 1.0 μg/ml. The solutions were used as samples and analyzed for collagen synthesis after incubation for 72 hours. 72 hours after the treatment of the sample, culture solution was discarded, cells were washed with serum-free DMEM three times, and cells were cultured again by using flesh serum-free DMEM. After incubation, supernatant in each well was combined and analyzed for the amount of PICP (procollagen type I C-peptide) by using a collagen measuring kit. The standard solution contained in the collagen measuring kit was diluted with a sample and absorption at 450 nm was measured to construct a standard concentration curve (see the following Table 2).
To an antibody-coated microtiter plate comprising a primary collagen antibody applied unifomrily thereto, 100 μl of an antibody-POD conjugate solution and the cell supernatant collected as described above were added, followed by incubation at 37° C. for 3 hours, to induce an antigen-antibody reaction. Then, the reaction mixture was subjected to washing and color developing. After the reaction, the reaction mixture developed a yellow color, wherein the yellowness depended on reaction degrees. Also, 96 well plates developing a yellow color were determined at 450 nm by using a microtiter plate reader.

T1 sequence (Q8CI15 1-381 isoform Q8CI15-3): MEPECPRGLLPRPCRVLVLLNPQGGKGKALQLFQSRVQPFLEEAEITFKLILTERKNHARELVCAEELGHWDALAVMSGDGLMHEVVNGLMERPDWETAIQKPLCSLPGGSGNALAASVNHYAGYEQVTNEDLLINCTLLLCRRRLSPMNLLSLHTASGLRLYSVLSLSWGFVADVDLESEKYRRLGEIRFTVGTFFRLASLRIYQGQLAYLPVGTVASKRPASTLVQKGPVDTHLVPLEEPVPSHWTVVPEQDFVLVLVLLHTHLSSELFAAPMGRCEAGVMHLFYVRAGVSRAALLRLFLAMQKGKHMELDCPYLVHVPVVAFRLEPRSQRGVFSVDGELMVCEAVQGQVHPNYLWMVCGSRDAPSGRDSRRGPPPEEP

Row | C17-SIP Production (sphingosine kinase) | increase in production of sphingosine-1-phosphate (sphingosine kinase) | SMILES | changes in epidermis and dermis (steroid applied alone) (hairless mouse) | intracellular calcium movement (RBL-2H3 cell line) | expression of differentiation markers (involucrin, keratin-1) (keratinocytes) | Amount of PICP produced in fibroblasts (average ± SEM) (fibroblasts; 0.3 μg/ml) | Amount of PICP produced in fibroblasts (average ± SEM) (fibroblasts; 1.0 μg/ml) | collagen synthesis increase as compared to the non-treated control (fibroblasts)
1 | – | – | CCC(=O)O[C@]1(C(=O)CCl)[C@@H](C)C[C@H]2[C@@H]3CCC4=CC(=O)C=C[C@]4(C)[C@@]3(F)[C@@H](O)C[C@@]21C [chlobetason-17-propionate, reference compound] | significant thinning of the epidermis and abnormal changes in the dermis | – | – | – | – | –
2 | 67.69 pmol/min/mg | about 30% | CCCCCCCC(=O)C(CCCCCC)C(=O)NCC(O)CO (stereo not drawn) [K6PC-4, N-(2,3-dihydroxypropyl)-2-hexyl-3-oxo-decanamide] | – | caused intracellular calcium movement | expressed the differentiation markers | 62.01 ± 2.5 | 80.51 ± 4.4 | about 1.7 times
3 | 75.51 pmol/min/mg | about 46% | CCCCCCCC(=O)C(CCCCCC)C(=O)NC(C)(CO)CO (stereo not drawn) [K6PC-7, N-(2-methyl-1,3-dihydroxyisopropyl)-2-hexyl-3-oxo-decanamide] | – | caused intracellular calcium movement | expressed the differentiation markers | 90.3 ± 12.5 | 87.3 ± 14.9 | about 1.9 times
4 | 66.72 pmol/min/mg | about 30% | CCCCCCCC(=O)C(CCCCCC)C(=O)NCCO (stereo not drawn) [K6PC-9, N-ethanol-2-hexyl-3-oxo-decanamide] | – | caused intracellular calcium movement | expressed the differentiation markers | 95.0 ± 5.2 | 86.7 ± 8.2 | about 2.0 times

Row | SMILES | C17-SIP Production (sphingosine kinase) | increase in production of sphingosine-1-phosphate (sphingosine kinase) | changes in epidermis and dermis (steroid applied alone) (hairless mouse) | intracellular calcium movement (RBL-2H3 cell line) | expression of differentiation markers (involucrin, keratin-1) (keratinocytes) | Amount of PICP produced in fibroblasts (average ± SEM) (fibroblasts; 0.3 μg/ml) | Amount of PICP produced in fibroblasts (average ± SEM) (fibroblasts; 1.0 μg/ml) | collagen synthesis increase as compared to the non-treated control (fibroblasts)
5 | CCCCCCCCCCCCCC(=O)O[C@@H]1[C@@H](C)[C@@]2(O)[C@@H](C=C(CO)C[C@]3(O)C(=O)C(C)=C[C@@H]23)[C@@H]2C(C)(C)[C@]12OC(C)=O [PMA, phorbol microstate acetate, reference compound] | 76.76 pmol/min/mg | about 48% | – | – | – | – | – | –
